Source: ChEMBL document CHEMBL1149530, “Design and synthesis of a new, conformationally constrained, macrocyclic small-molecule inhibitor of STAT3 via 'click chemistry'” (Bioorg Med Chem Lett, 2007)
Where a SMILES comes first, the peptide text is derived from it. Bridges are numbered along the chain shown (N, C = ends). Triazole bridges read from a SMILES are 1,4-linked. [ ]: non-standard residue; d: D form. pY = N[C@@H](Cc1ccc(OP(=O)(O)O)cc1)C(=O)O; Lys(N3) = [N-]=[N+]=NCCCC[C@H](N)C(=O)O; Pra = C#CC[C@H](N)C(=O)O

Molecular target: Signal transducer and activator of transcription 3 (Homo sapiens, UniProt P40763)
Test: Binding affinity to recombinant STAT3 by fluorescence polarization based binding assay

Signal transducer and activator of transcription 3, sequence (P40763 whole entry): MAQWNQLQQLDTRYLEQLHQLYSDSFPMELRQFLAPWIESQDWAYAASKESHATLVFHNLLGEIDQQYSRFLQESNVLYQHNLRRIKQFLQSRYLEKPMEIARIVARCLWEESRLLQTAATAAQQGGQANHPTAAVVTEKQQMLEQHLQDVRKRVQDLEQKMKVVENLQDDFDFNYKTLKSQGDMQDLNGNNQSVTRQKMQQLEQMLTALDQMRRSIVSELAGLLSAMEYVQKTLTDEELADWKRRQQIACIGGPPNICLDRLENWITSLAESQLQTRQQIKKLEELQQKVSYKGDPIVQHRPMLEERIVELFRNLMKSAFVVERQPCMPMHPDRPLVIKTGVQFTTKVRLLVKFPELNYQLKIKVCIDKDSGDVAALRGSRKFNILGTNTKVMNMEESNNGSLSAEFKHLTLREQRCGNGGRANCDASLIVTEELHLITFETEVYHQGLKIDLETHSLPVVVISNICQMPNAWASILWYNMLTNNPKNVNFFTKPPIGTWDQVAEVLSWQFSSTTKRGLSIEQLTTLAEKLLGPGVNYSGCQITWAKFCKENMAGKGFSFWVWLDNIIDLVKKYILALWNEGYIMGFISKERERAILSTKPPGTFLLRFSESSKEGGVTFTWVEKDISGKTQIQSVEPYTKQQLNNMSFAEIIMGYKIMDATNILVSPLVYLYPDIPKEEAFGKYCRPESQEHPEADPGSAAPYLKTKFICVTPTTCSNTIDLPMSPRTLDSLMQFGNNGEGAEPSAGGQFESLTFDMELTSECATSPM

Row | SMILES | Ki [µM]
1 | CC(=O)N[C@@H](Cc1ccc(OP(=O)(O)O)cc1)C(=O)N[C@@H](CC(C)C)C(=O)N[C@H]1CCCCn2cc(nn2)C[C@@H](C(=O)N[C@@H](Cc2ccccc2)C(N)=O)NC(=O)[C@H]([C@@H](C)O)NC1=O (Ac-[pY]L[Lys(N3)]T[Pra]F-NH2; triazole 3-5) | 7.3
2 | CC(=O)N[C@@H](Cc1ccc(OP(=O)(O)O)cc1)C(=O)N[C@@H](CC(C)C)C(=O)N[C@@H](CCCCN)C(=O)N[C@H](C(=O)N[C@@H](CCCCN)C(=O)N[C@@H](Cc1ccccc1)C(N)=O)[C@@H](C)O (HELM PEPTIDE1{[ac].[O=C([C@H](Cc1ccc(OP(=O)(O)O)cc1)N[*:1])[*:2]].L.K.T.K.F.[am]}$$$$V2.0) | 25.9
